Columns and labels:
CD8 T cells [1] = assay: Annexin/PI apoptosis staining, CD8; assay type: cell-based, mouse; settings: 3 μM or 10 μM, 72 hours, vs DMSO
Method: (§1) Lymph nodes and spleen were isolated from wild-type C57BL/6N mice. Tissue was mechanically dissociated with the back of a syringe plunger and passed through a 70 M filter. […] Treated cells were incubated at 37° C., 5% CO2 for the designed study duration.
Treated CD3 T cells were prepared following the in vitro T cell activation method and incubated for 72 hours at 37° C., 5% CO2.

CD8 T cells [2] = assay: CD8 T cell activation markers by flow cytometry; assay type: cell-based, mouse; settings: 72 hours
Method: as §1, with “duration. […] After staining, cells were pelleted, resuspended and run by a BD FACSymphony A3 flow cytometer.” for “duration.”

B16 = assay: In vivo adoptive cellular transfer, pmel-I, B16 tumor; design: species or system mouse; settings: T cells pre-treated with 10 μM; B16 tumor bearing mice; vs sham and DMSO pre-treated
Method: C57BL/6N mice were injected with 3×10^5 B16-OVA or B16 subcutaneously in the right flank. Five days after injection, mice were administered 200 μg cyclophosphamide monohydrate (Sigma #C73971G) dissolved in PBS by intraperitoneal injection to induce minor lymphodepletion. 48 hours after lymphodepletion, mice were intravenously adoptively transferred 2.5×10^6 CD8 OT-I or CD8 […] pre-treated ex vivo following the in vitro T cell activation method. Tumor growth rates were determined by tumor volume measurement beginning on day four and continuing three times per week for the study duration. Tumor volumes were determined by the ellipsoid formula: [(Length×Width^2)/2]. At the end of study, tumors were either fixed in 10% formalin or dissociated into a single-cell suspension for flow cytometry. Single-cell suspension was performed by chopping tumor tissue with scissors followed by a 30-minute incubation at 37° C. with 100 µg/ml DNase I (Roche #10104159001) and 0.5 U/ml Liberase (Roche #05401127001) in PBS. Solution was then diluted with cRPMI-1640 and passed through a 70 μm cell strainer, pelleted and resuspended in ACK lysis buffer to remove erythrocytes. Cells were then counted, filtered through a 70 μm cell strainer, and 10×10^6 cells were aliquoted and stained following the immune profiling by flow cytometry method.

BM-MDSCs [3] = settings: differentiating BM-MDSCs, 3 μM or 10 μM, 72 hours
Method: (§2) Bone marrow cells were isolated by flushing the tibia and femurs of wild-type C57BL/6N mice. […] To generate BM-MDSCs, 3×10^6 cells were plated in a 6-well dish and incubated at 37° C., 5% CO2 for 96 hours. For treatment, drugs were administered at either 3 μM or 10 μM concentrations and added to the BM-MDSC cell culture well 24 hours after plating.
Protein concentration was quantified using a BCA protein assay kit (Thermo #A53225). […] of protein diluted with 1×LDS sample buffer (Life Technologies #B0008) and 1×sample reducing agent (Life Technologies #B0009), were denatured at 95° C. for 5 minutes. Denatured T cell protein was resolved using a 10% Bolt Bis-Tris plus protein gel (Thermo #NW00102BOX) and denatured BM-MDSC protein was resolved using an 8% Bolt Bis-Tris plus protein gel (Thermo #NW00082BOX). Gels were transferred to a PVDF membrane (Invitrogen #IB401002) using a seven-minute P3 program on an Invitrogen iBlot dry transfer system. Membranes were then blocked for one hour using 5% nonfat dry milk in TBS-T, washed three times with TBS-T and probed with primary antibody diluted with 5% BSA in TBS-T overnight at 4° C. with gentle rocking. Primary antibody was removed, and membranes were washed three times with TBS-T followed by secondary antibody diluted in TBS-T at room temperature for one hour with gentle rocking. […]

BM-MDSCs [4] = assay: Arginase-I and iNOS immunoblot in BM-MDSCs; assay type: cell-based, mouse; settings: for arginase-I levels, reduction compared to DMSO / iNOS production, reduction compared to DMSO: 72 hours
Method: as §2
Protein concentration was quantified using a BCA protein assay kit (Thermo #A53225). […] of protein diluted with 1×LDS sample buffer (Life Technologies #B0008) and 1×sample reducing agent (Life Technologies #B0009), were denatured at 95° C. for 5 minutes. Denatured T cell protein was resolved using a 10% Bolt Bis-Tris plus protein gel (Thermo #NW00102BOX) and denatured BM-MDSC protein was resolved using an 8% Bolt Bis-Tris plus protein gel (Thermo #NW00082BOX). Gels were transferred to a PVDF membrane (Invitrogen #IB401002) using a seven-minute P3 program on an Invitrogen iBlot dry transfer system. Membranes were then blocked for one hour using 5% nonfat dry milk in TBS-T, washed three times with TBS-T and probed with primary antibody diluted with 5% BSA in TBS-T overnight at 4° C. with gentle rocking. Primary antibody was removed, and membranes were washed three times with TBS-T followed by secondary antibody diluted in TBS-T at room temperature for one hour with gentle rocking. […] Secondary antibodies used were anti-mouse-HRP (Kindle Biosciences #R1005) and anti-rabbit-HRP (Kindle Biosciences #R1006). Analysis was conducted using ImageJ (NIH Bethesda, MD) and normalized to the housekeeping protein β-actin.

CD8 T cells [5] = assay: CFSE labeling and T cell proliferation; assay type: cell-based, mouse; settings: 72 hours
Method: Lymph nodes and spleen were isolated from wild-type C57BL/6N mice. Tissue was mechanically dissociated with the back of a syringe plunger and passed through a […] filter. […] Treated cells were incubated at 37° C., 5% CO2 for the designed study duration. Isolated CD3 T cells were labeled with 1 μM CFDA SE (Thermo #V12883) for 15 minutes at 37° C. protected from light. […] Cells were pelleted, resuspended and plated in an antibody coated well with the indicated drug concentrations at time zero. Activated T cells were incubated at 37° C., 5% CO2 for 72 hours. After study duration, T cells were stained with anti-CD4, anti-CD8, anti-CD3 following the immune profiling by flow cytometry method and proliferation was measured by CFSE dilution.

[6] = cited from earlier work
CD4 T cells = assay: CD4 T cell activation markers by flow cytometry; assay type: cell-based, mouse; settings: 72 hours
Method: as §1, with “duration. […] After staining, cells were pelleted, resuspended and run by a BD FACSymphony A3 flow cytometer.” for “duration.”

O=c1nc(OC[C@@H]2COCCO2)cc2n1CCc1cc(C#CC3CC3)ccc1-2 [GLPG1205, 9-Cyclopropylethynyl-2-((S)-1-[1,4]dioxan-2-ylmethoxy)-6,7-dihydropyrimido[6,1-a]isoquinolin-4-one]
CD8 apoptosis (Annexin/PI) (CD8 T cells [1]): significantly reduced CD8 apoptosis
CD25 expression, increase vs DMSO (CD8 T cells [2]; 3 μM): 21%
CD69 expression, increase vs DMSO (CD8 T cells [2]; 3 μM): 11.24%
CTLA-4, increase vs DMSO (CD8 T cells [2]; 3 μM): 50.31%
LAG-3, increase vs DMSO (CD8 T cells [2]; 3 μM): 11.72%
PD-1, increase vs DMSO (CD8 T cells [2]; 3 μM): 10.02%
intracellular IFNγ, increase vs DMSO (CD8 T cells [2]; 3 μM): 51.23%
CD25 expression, increase vs DMSO (CD8 T cells [2]; 10 μM): 25.58%
CD69 expression, increase vs DMSO (CD8 T cells [2]; 10 μM): 14.59%
CTLA-4, increase vs DMSO (CD8 T cells [2]; 10 μM): 81.92%
LAG-3, increase vs DMSO (CD8 T cells [2]; 10 μM): 13.15%
PD-1, increase vs DMSO (CD8 T cells [2]; 10 μM): 13.91%
intracellular IFNγ, increase vs DMSO (CD8 T cells [2]; 10 μM): 61.55%
tumor growth rate after adoptive transfer of pre-treated pmel-I CD8 T cells (B16): significant reduction in the tumor growth rate
GPR84 expression (BM-MDSCs [3]): only neared statistical significance
arginase-I levels, reduction compared to DMSO (BM-MDSCs [4]; 3 μM): 1.79 times
iNOS production, reduction compared to DMSO (BM-MDSCs [4]; 3 μM): 1.5 times
arginase-I levels, reduction compared to DMSO (BM-MDSCs [4]; 10 μM): 2.75 times
iNOS production, reduction compared to DMSO (BM-MDSCs [4]; 10 μM): 1.35 times
expression of Arginase 1 and iNOS (Western blot) (BM-MDSCs [4]; bone marrow derived murine MDSC, descending concentrations (FIG. 4)): decreases the expression of Arginase 1 protein
CD8 T cell proliferation, Log2 fold change compared DMSO control (CD8 T cells [5]; 3 μM): 0.48 Log2 fold change
CD8 T cell proliferation, increase vs DMSO (CD8 T cells [5]; 3 μM): 39.3%
CD8 T cell proliferation, Log2 fold change compared DMSO control (CD8 T cells [5]; 10 μM): 0.78 Log2 fold change
CD8 T cell proliferation, increase vs DMSO (CD8 T cells [5]; 10 μM): 71.7%
inflammatory response in ulcerative colitis ([6]; in vivo): unable to improve the inflammatory response
adverse outcome in ulcerative colitis study ([6]; led to the drug's discontinuation): worsening of colitis in certain patients
CD25 expression, increase vs DMSO (CD4 T cells; 3 μM): 14.28%
CTLA4 expression, increase vs DMSO (CD4 T cells; 3 μM): 30.31%
CD25 expression, increase vs DMSO (CD4 T cells; 10 μM): 11.37%
CTLA4 expression, increase vs DMSO (CD4 T cells; 10 μM): 51.16%
